The numbers were not newly measured in US20200229456A1, “Synergistic Formulation Including At Least One Gibberellin Compound and Salicyclic Acid” (Stoller Enterprises, Inc., priority 2018, published 2020), which cites them from elsewhere.

For one series, the system named is tomatoes. To be noted: GA3 at 0.1%, CaCl2 at 1.5%, SA at 0.4 mM.
The next series has as its system banana slices. To be noted: GA3 applied exogenously on banana slices.
The test system of the next series is Cavendish bananas. Conditions: 300 ppm GA3 or 4 mM SA, versus other treatments.
Another series has as its system Bananas. To be noted: SA at either 0.5 mM or 1 mM.

Consider `[Ca+2].[Cl-].[Cl-]` [CaCl2, calcium chloride], for which the “shelf life of tomatoes” value in the series on tomatoes was “extended the shelf life”.

Take `C=C1C[C@]23C[C@@]1(O)CC[C@H]2[C@@]12C=C[C@H](O)[C@@](C)(C(=O)O1)[C@H]2[C@@H]3C(=O)O` [GA3, gibberellic acid]: in the series with banana slices, the “postponement of accumulation of sucrose” value was 2 days and the “respiration rate or ethylene profile” value is on record as “does not alter”. The “shelf life of tomatoes” value in the series on tomatoes is given as “extended the shelf life”. Also, in the series on Cavendish bananas, the delay in ripening result was “more considerable delay in ripening”.

Consider `O=C(O)c1ccccc1O` [SA, Salicylic acid], for which the “shelf life of tomatoes” value in the series on tomatoes is “extended the shelf life”. In addition, in the series on Bananas, the fruit firmness result is reported as “firmer fruits”, the respiration rates result is recorded as “decrease in respiration rates” and the sugar content result is on record as “lower sugar content”. Besides, the delay in ripening result with Cavendish bananas is “more considerable delay in ripening”.
